Where two headings read alike, the source gives them in different places.
Key:
HT-29 cells = experiment: growth inhibition of HT-29 cells, 6 days, sulforhodamine B staining; format: cell-based, human; details: for IC50: HT-29, 6 days, sulforhodamine B
Method: The growth inhibitory effect of 5-ethoxy-2'-deoxyuridine was compared with other analogous 5-substituted-2'-deoxyuridine compounds by determining the IC50 of each compound in an assay which measured the growth inhibition of HT-29 cells. The HT-29 cells were placed in 96 well plates (2×10^4 cells per well) in RPMI 1640 with 10% added fetal bovine serum. After allowing the cells to attach overnight, several concentrations of the test compounds were added. After 6 days, cell numbers were quantitated by staining with sulforhodamine B (Skehan et al., J. Natl. Canc. Inst, 82, 1107-1112, 1990).

[1] = tested on: HT-29 human carcinoma cells; experiment: in vitro clonogenic assay (cloning efficiency) with HT-29 cells, 72 h drug exposure; format: cell-based; details: for IC50: read-out: IC50 for 5-fluorouracil (50% reduction of cloning efficiency)
Method: For assessment of the antitumor activity of 5-ethoxy-2'-deoxyuridine, an in vitro clonogenic assay was used. The assay was based on a modification of procedures first described by Puck and Marcus (Proc. Natl. Acad. Sci. (USA) 41:432-437, 1955). […] 3:225-231, 1991; A. F. Sobrero et al., J. Natl. Cancer Inst. 85:1937-1944, 1993).
HT-29 human carcinoma cells (ATCC No. HTB-38) were maintained in RPMI 1640 with 10% v/v fetal bovine serum (GIBCO) in a humidified, 5% CO2 atmosphere at 37° C. Cells were plated in 24 well plates (150 cells per well) in RPMI 1640 medium with 10% v/v dialyzed fetal bovine serum. After allowing cell attachment to proceed overnight, combinations of interferon-α (500 units/ml; Roferon-A, Roche Labs.), 5-ethoxy-2'-deoxyuridine (150 μM), in the presence of increasing concentrations of 5-fluorouracil (as specified in the Table) were added. The various agents were diluted in phosphate-buffered saline, and control wells received vehicle alone. After 72 hours, drug containing medium was removed and replaced with RPMI 1640 with 10% v/v fetal bovine serum. Cell colonies were allowed to grow for an additional 7-10 days, at which point they were stained and counted. […] Data are means of at least 3 determinations. The IC50 values for 5-fluorouracil were calculated graphically by determining the concentration of 5-fluorouracil that reduced cloning efficiency by 50% from the cloning efficiency value measured in the absence of 5-fluorouracil.

5-propynyloxy-2'-deoxyuridine
IC50 (HT-29 cells): > 3000 µM

O=c1[nH]cc(F)c(=O)[nH]1 [5-FU, 5-fluorouracil]
Cloning Efficiency (% of control) ([1]; 5-FU 0.025 μM with 5-ETH 150 μM + IFN 500 u/ml, 4320 min): 89 % of control
Cloning Efficiency (% of control) ([1]; 5-FU 0.05 μM with 5-ETH 150 μM + IFN 500 u/ml, 4320 min): 81 % of control
Cloning Efficiency (% of control) ([1]; 5-FU 0.05 μM with 5-ETH 150 μM, 4320 min): 81 % of control
Cloning Efficiency (% of control) ([1]; 5-FU 0.10 μM with 5-ETH 150 μM + IFN 500 u/ml, 4320 min): 38 % of control
Cloning Efficiency (% of control) ([1]; 5-FU 0.10 μM with 5-ETH 150 μM, 4320 min): 80 % of control
Cloning Efficiency (% of control) ([1]; 5-FU 0.15 μM with 5-ETH 150 μM + IFN 500 u/ml, 4320 min): 9 % of control
Cloning Efficiency (% of control) ([1]; 5-FU 0.25 μM with 5-ETH 150 μM + IFN 500 u/ml, 4320 min): 0 % of control
Cloning Efficiency (% of control) ([1]; 5-FU 0.25 μM with 5-ETH 150 μM, 4320 min): 60 % of control
Cloning Efficiency (% of control) ([1]; 5-FU 0.25 μM with IFN 500 u/ml, 4320 min): 97 % of control
Cloning Efficiency (% of control) ([1]; 5-FU 0.50 μM with 5-ETH 150 μM, 4320 min): 38 % of control
Cloning Efficiency (% of control) ([1]; 5-FU 0.50 μM with IFN 500 u/ml, 4320 min): 83 % of control
Cloning Efficiency (% of control) ([1]; 5-FU 1.0 μM with 5-ETH 150 μM, 4320 min): 13 % of control
Cloning Efficiency (% of control) ([1]; 5-FU 1.0 μM with IFN 500 u/ml, 4320 min): 56 % of control
Cloning Efficiency (% of control) ([1]; 5-FU 1.5 μM with 5-ETH 150 μM, 4320 min): 4 % of control
Cloning Efficiency (% of control) ([1]; 5-FU 1.5 μM with IFN 500 u/ml, 4320 min): 18 % of control
Cloning Efficiency (% of control) ([1]; 5-FU 2.0 μM with IFN 500 u/ml, 4320 min): 8 % of control
Cloning Efficiency (% of control) ([1]; 5-FU 3.0 μM with IFN 500 u/ml): 1 % of control
IC50 ([1]; Homo sapiens, HT-29, 72 h, 5-FU alone (CONT, PBS)): 2 µM
IC50 ([1]; Homo sapiens, HT-29, 72 h, 5-FU with 5-ETH 150 μM + IFN 500 u/ml): 0.08 µM
IC50 ([1]; Homo sapiens, HT-29, 72 h, 5-FU with 5-ETH 150 μM): 0.35 µM
IC50 ([1]; Homo sapiens, HT-29, 72 h, 5-FU with IFN 500 u/ml): 1.1 µM
activity at 0.25 µM ([1]; Homo sapiens, HT-29, 72 h, 5-FU 0.25 μM alone (CONT, PBS), read-out: Cloning Efficiency (% of control)): 104%
activity at 0.5 µM ([1]; Homo sapiens, HT-29, 72 h, 5-FU 0.50 μM alone (CONT, PBS), read-out: Cloning Efficiency (% of control)): 93%
activity at 1 µM ([1]; Homo sapiens, HT-29, 72 h, 5-FU 1.0 μM alone (CONT, PBS), read-out: Cloning Efficiency (% of control)): 87%
activity at 1.5 µM ([1]; Homo sapiens, HT-29, 72 h, 5-FU 1.5 μM alone (CONT, PBS), read-out: Cloning Efficiency (% of control)): 60%
activity at 2 µM ([1]; Homo sapiens, HT-29, 72 h, 5-FU 2.0 μM alone (CONT, PBS), read-out: Cloning Efficiency (% of control)): 55%
activity at 3 µM ([1]; Homo sapiens, HT-29, 72 h, 5-FU 3.0 μM alone (CONT, PBS), read-out: Cloning Efficiency (% of control)): 27%
activity at 4 µM ([1]; Homo sapiens, HT-29, 72 h, 5-FU 4.0 μM alone (CONT, PBS), read-out: Cloning Efficiency (% of control)): 5%

CCOc1cn([C@H]2C[C@H](O)[C@@H](CO)O2)c(=O)[nH]c1=O [5-ethoxy-2'-deoxyuridine]
activity at 150 µM ([1]; Homo sapiens, HT-29, 72 h, 5-ETH 150 μM alone, no 5-FU (0), read-out: Cloning Efficiency (% of control)): 89%
toxicity relative to the ethyl analog (HT-29 cells; HT-29 cytotoxicity, fraction of the toxicity of the ethyl analog): about 1/300
toxicity relative to the methyloxy analog (HT-29 cells; HT-29 cytotoxicity, fraction of the toxicity of the methyloxy analog): about 1/27
toxicity relative to the propyloxy analog (HT-29 cells; HT-29 cytotoxicity, fraction of the toxicity of the propyloxy analog): about 1/2
IC50 (HT-29 cells; Homo sapiens, 144 h): 750 µM
toxicity compared with many other prior art 5-substituted-2'-deoxyuridines that have been tested (HT-29 cells; statement in words): less toxic

CCc1cn([C@H]2C[C@H](O)[C@@H](CO)O2)c(=O)[nH]c1=O [5-ethyl-2'-deoxyuridine]
IC50 (HT-29 cells; Homo sapiens, 144 h): 2.5 µM

COc1cn([C@H]2C[C@H](O)[C@@H](CO)O2)c(=O)[nH]c1=O [5-methoxy-21-deoxyuridine]
IC50 (HT-29 cells; Homo sapiens, 144 h): 28 µM

CCCOc1cn([C@H]2C[C@H](O)[C@@H](CO)O2)c(=O)[nH]c1=O [5-propyloxy-2'-deoxyuridine]
IC50 (HT-29 cells; Homo sapiens, 144 h): 325 µM

Source: US5545629A, “5-ethoxy-2'-deoxyuridines” (Montefiore Medical Center, priority 1994, dated 1996)
